Laboratory results from BindingDB's records for doi:10.1016/s0960-894x(98)00318-7 (National Taiwan University, 1999).

Assay: Binding affinity against Opioid receptor delta 1 was determined in brain membrane preparations from male Hartley guinea-pigs

First: CC1Oc2c(O)cccc2C12CCN(C)CC2 (stereo not drawn) [1',2-dimethylspiro[2,3-dihydrobenzo[b]furan-3,4'-(hexahydropyridine)]-7-ol]
Second: CCC1Oc2c(O)cccc2C12CCN(C)CC2 (stereo not drawn) [2-ethyl-1'-methylspiro[2,3-dihydrobenzo[b]furan-3,4'-(hexahydropyridine)]-7-ol]
The Ki of the first is 2.8-fold higher: 2410 nM for the first, 853 nM for the second. The second binds more tightly here.

For `CN1CCC2(CC1)COc1c(O)cccc12` [1'-methylspiro[2,3-dihydrobenzo[b]furan-3,4'-(hexahydropyridine)]-7-ol], the Ki was greater than 100000 nM.
